From PMC10865806, “Structural insights into the molecular mechanism of high-level ceftazidime–avibactam resistance conferred by CMY-185” (mBio, 2024)
≈ marks a conversion by molar mass, not a printed value.

Legend:
other β-lactamases = tested on: other β-lactamases; set-up: method as in PMID 30188999, PMID 27736756; details: cited from earlier work
V211S (CMY-42) = molecular target: T1, V211S (CMY-42) (Klebsiella pneumoniae, UniProt Q48434, V231S); assay: Steady-state hydrolysis kinetics; type: biochemical, Escherichia coli; details: PBS pH 7.2, 25°C
T1 construct: all CMY-2 variant genes encoding the mature enzyme without a signal peptide were cloned into the protein expression plasmid vector pET-30b; made in house; host or cells: E. coli BL21 (DE3), pET-30b
From the text: (§1) We tested the enzymes, CMY-2, two single mutants V211S (CMY-42) and N346Y, three double mutants A114E_N346Y, Q120K_N346Y, and V211S_N346Y, and the quadruplet mutant CMY-185 to elucidate the impact on the kinetic properties resulting from the four amino acid substitutions present in CMY-185 compared with CMY-2 ([8]). The steady-state kinetic parameters kcat and Km (or Ki app) for nitrocefin, cephalothin, ceftazidime, and cefiderocol and the inhibition parameters Ki app, k2/K, k−2, and koff for avibactam are summarized in Table 1. During the hydrolysis of nitrocefin, we observed the reduction of the initial velocity at concentrations above 50 µM particularly for the CMY-2 variants harboring the N346Y substitution. As this could have represented substrate inhibition, we then determined the kinetics parameters for nitrocefin using the Haldane equation ([16]). […] In addition, during the hydrolysis of cefiderocol by CMY-185, the initial velocities at a concentration range of 3.7–59.4 µM were similar.
(§2) The steady-state kinetics were carried out on a UV-Visible spectrometer (UV-1280, Shimadzu, Japan) in PBS pH 7.2 at 25°C with a constant amount of enzyme and varying concentrations of the substrates. We tested nitrocefin, cephalothin, ceftazidime, and cefiderocol as the substrates and avibactam as the inhibitor. The steady-state kinetics parameters Km and kcat were determined with the Michaelis-Menten equation. For poorly hydrolyzed substrates, the Km value was assumed to be the competitive inhibition constant (Ki app) value according to previous studies ([17], [19]). Inhibition parameter values of Ki app, k2/K, k−2, and koff for avibactam were determined using a method as described previously ([33]). Cephalothin was used as the reporter substrate for competitive inhibition experiments, and its concentration was fixed at 100 µM. The enzyme concentration was 1–10 nM. Inverse steady-state initial velocities were plotted against the concentration of the competitive inhibitor agents, such as ceftazidime, cefiderocol, and avibactam. The data were analyzed by linear regression analysis of the Dixon plot, and Ki app (observed) was determined by dividing the y-intercept value by the slope of the line. It was then corrected to account for the affinity of cephalothin for each enzyme using the Equation (1): […]

[1] = molecular target: T2, CMY-2 variant Q120K_N346Y (Klebsiella pneumoniae, UniProt Q48434, N366Y/Q140K); assay: Steady-state hydrolysis kinetics; type: biochemical, Escherichia coli; details: substrate 100 µM, 100–200 nM enzyme
T2 construct: all CMY-2 variant genes encoding the mature enzyme without a signal peptide were cloned into the protein expression plasmid vector pET-30b; made in house; host or cells: E. coli BL21 (DE3), pET-30b
From the text: as §1, §2

CMY-185 [2] = molecular target: T3, CMY-185 (Klebsiella pneumoniae, UniProt Q48434, A134E/N366Y/Q140K/V231S); assay: Steady-state hydrolysis kinetics; type: biochemical, Escherichia coli
T3 construct: all CMY-2 variant genes encoding the mature enzyme without a signal peptide were cloned into the protein expression plasmid vector pET-30b; made in house; host or cells: E. coli BL21 (DE3), pET-30b
From the text: as §1, §2

CMY-2 = molecular target: T4, CMY-2 (Klebsiella pneumoniae, UniProt Q48434); assay: Competitive inhibition of cephalothin hydrolysis and avibactam inhibition kinetics; type: biochemical, Escherichia coli
T4 construct: all CMY-2 variant genes encoding the mature enzyme without a signal peptide were cloned into the protein expression plasmid vector pET-30b; made in house; host or cells: E. coli BL21 (DE3), pET-30b
From the text: as §1
(§3) The steady-state kinetics were carried out on a UV-Visible spectrometer (UV-1280, Shimadzu, Japan) in PBS pH 7.2 at 25°C with a constant amount of enzyme and varying concentrations of the substrates. We tested nitrocefin, cephalothin, ceftazidime, and cefiderocol as the substrates and avibactam as the inhibitor. The steady-state kinetics parameters Km and kcat were determined with the Michaelis-Menten equation. For poorly hydrolyzed substrates, the Km value was assumed to be the competitive inhibition constant (Ki app) value according to previous studies ([17], [19]). Inhibition parameter values of Ki app, k2/K, k−2, and koff for avibactam were determined using a method as described previously ([33]). Cephalothin was used as the reporter substrate for competitive inhibition experiments, and its concentration was fixed at 100 µM. The enzyme concentration was 1–10 nM. Inverse steady-state initial velocities were plotted against the concentration of the competitive inhibitor agents, such as ceftazidime, cefiderocol, and avibactam. The data were analyzed by linear regression analysis of the Dixon plot, and Ki app (observed) was determined by dividing the y-intercept value by the slope of the line. It was then corrected to account for the affinity of cephalothin for each enzyme using the Equation (1):
(§4) (1) Ki app=Ki app (observed)/{1+[S]/Km (cephalothin)}
(§5) where [S] represents the concentration of the reporter substrate cephalothin, and Km (cephalothin) is the Km value of cephalothin for each enzyme.
(§6) The koff value was determined using a jump dilution assay. The enzyme and avibactam were mixed and preincubated at 25°C for 5 min. The concentration of avibactam depended on the enzyme and concentrations 10-fold higher from each Ki app (observed) value were adopted, which were determined based on the corrected competitive inhibition constants Ki app. Preincubated enzyme-avibactam mixture was then diluted 2,000-fold in the 100 µM cephalothin solution, and the hydrolysis of cephalothin was measured. Three independent measurements were performed for each enzyme and substrate or inhibitor combination. Curve fittings using linear or non-linear regression were performed with R 4.1.3 (R Core Team, 2022).

CMY-2 variant N346Y = molecular target: T5, CMY-2 variant N346Y (Klebsiella pneumoniae, UniProt Q48434, N366Y); assay: as above; type: biochemical, Escherichia coli; details: N346Y; reporter substrate cephalothin 100 µM, Dixon plot; read-out: Ki app
T5 construct: all CMY-2 variant genes encoding the mature enzyme without a signal peptide were cloned into the protein expression plasmid vector pET-30b; made in house; host or cells: E. coli BL21 (DE3), pET-30b
From the text: as §1, §3, §4, §5, §6

[3] = molecular target: T6, CMY-2 variant A114E_N346Y (Klebsiella pneumoniae, UniProt Q48434, A134E/N366Y); assay: as above; type: biochemical, Escherichia coli; details: reporter substrate cephalothin 100 µM, Dixon plot, read-out: Ki app
T6 construct: all CMY-2 variant genes encoding the mature enzyme without a signal peptide were cloned into the protein expression plasmid vector pET-30b; made in house; host or cells: E. coli BL21 (DE3), pET-30b
From the text: as §1, §3, §4, §5, §6

[4] = molecular target: T2, CMY-2 variant Q120K_N346Y; assay: as above; type: biochemical, Escherichia coli; details: Q120K_N346Y; reporter substrate cephalothin 100 µM, Dixon plot; read-out: Ki app
From the text: as §1, §3, §4, §5, §6

CMY-185 [5] = molecular target: T3, CMY-185; assay: as above; type: biochemical, Escherichia coli; details: CMY-185; reporter substrate cephalothin 100 µM, Dixon plot; read-out: Ki app
From the text: as §1, §3, §4, §5, §6

AmpC^Ent385 = tested on: AmpC^Ent385; set-up: method as in PMID 32284381; details: lowest Km reported to date; cited from earlier work
CMY-172 = details: cited from earlier work

CC(C)(O/N=C(\C(=O)N[C@@H]1C(=O)N2C(C(=O)[O-])=C(C[N+]3(CCNC(=O)c4ccc(O)c(O)c4Cl)CCCC3)CS[C@H]12)c1csc(N)n1)C(=O)O [Cefiderocol, cefiderocol]
Km (other β-lactamases): > 190 µM
Km (V211S (CMY-42)): 68 ± 11 µM
kcat (V211S (CMY-42)): 0.034 ± 0.002 s⁻¹
kcat (V211S (CMY-42); listed as cefiderocol): (3.4 ± 0.2) × 10^−2 s^−1
hydrolysis [1]: no apparent hydrolysis
kcat (CMY-185 [2]; determined with steady-state velocities (cefiderocol 3.7–59.4 µM) and Ki app assumed to Km): 6.9 × 10^−3 ± 0.4 ×10^−3 a s^−1
kcat/Ki app (CMY-185 [2]; kcat/Ki app shown in the kcat/Km line): 3.0 × 10^−2 ± 0.2 × 10^−2 b µM^−1 s^−1
fold higher Ki app (CMY-2; cefiderocol compared with ceftazidime): 10 fold
Ki (CMY-2; reporter substrate cephalothin 100 µM, Dixon plot, read-out: Ki app): 8 ± 1.3 µM
Ki (CMY-2 variant N346Y): 0.7 µM
Ki [3]: 0.4 µM
Ki [4]: 0.4 µM
Ki (CMY-185 [5]): 0.2 µM
Km (AmpC^Ent385): 49.8 µM
MIC (CMY-172): 1 mg/L (≈ 1.33 µM)
